Holding throughout (format): biochemical
The target of assay [1] is T1, full-length human CSNK1A1 (Homo sapiens, UniProt P48729).
T1 construct: N-terminal Glutathion-S-Transferase (GST) and full-length human CSNK1A1; purchased Life Technologies PV4174; host or cells: baculovirus infected insect cells
The assay is described as follows: CSNK1A1 Assay 2 (ADP-Glo, 1 μM ATP, substrate biotin-Ahx-KRRRAL-pS-VASLPGL). The conditions noted are these: Table 3, read-out: CSNK1A1 Assay 2 IC50 [mol/l] (median). As for the experimental part: CSNK1A1-inhibitory activity of compounds of the present invention in presence of 1 μM adenosine-tri-phosphate (ATP) was quantified employing the CSNK1A1 assay as described in the following paragraphs. In essence, the enzyme activity is measured by quantification of the adenosine-di-phosphate (ADP), which is generated as a co-product of the enzyme reaction, via the “ADP-Glo™ Kinase Assay” kit from the company Promega. This detection system works as follows: In a first step the ATP not consumed in the kinase reaction is quantitatively converted to cAMP employing an adenylate cyclase (“ADP-Glo-reagent”), then the adenylate cyclase is stopped and the ADP generated in the kinase reaction converted to ATP which generates in a luciferase-based reaction a glow-luminescence signal (“Kinase Detection Reagent”).
(§1) Recombinant fusion protein of N-terminal Glutathion-S-Transferase (GST) and full-length human CSNK1A1, expressed by baculovirus infected insect cells and purified via Glutathion affinity chromatography, was purchased from Life Technologies (product no. PV4174) and used as enzyme. As substrate for the kinase reaction the biotinylated peptide biotin-Ahx-KRRRAL-pS-VASLPGL (C-terminus in amide form) was used which can be purchased e.g. from the company Biosyntan (Berlin-Buch, Germany).
For the assay 50 nl of a 100 fold concentrated solution of the test compound in DMSO was pipetted into a white 1536-well microtiter plate (Greiner Bio-One, Frickenhausen, Germany), 2 μL of a solution of CSNK1A1 in aqueous assay buffer [50 mM HEPES pH 7.5, 10% (v/v) glycerol, 10 mM MgCl2, 50 mM NaCl, 1 mM dithiothreitol, 0.01% (w/v) bovine serum albumin, 0.01% (v/v) Triton X-100] were added and the mixture was incubated for 15 min at 22° C. to allow pre-binding of the test compounds to the enzyme before the start of the kinase reaction. […] The concentration of CSNK1A1 was adjusted depending of the activity of the enzyme lot and was chosen appropriate to have the assay in the linear range, a typical concentrations are about 0.0375 ng/μL. The reaction was stopped by the addition of 2.5 μL of “ADP-Glo-reagent” (1:1.5 fold diluted with water) and the resulting mixture was incubated at 22° C. for 1 h to convert the ATP not consumed in the kinase reaction completely […]. Subsequently 2.5 μL of the “kinase detection reagent” (1.2 fold more concentrated than recommended by the producer) were added, the resulting mixture was incubated at 22° C. for 1 h and then the luminescence measured with a suitable measurement instrument (e.g. Viewlux™ from Perkin-Elmer). The amount of emitted light was taken as a measure for the amount of ADP generated and thereby for the activity of the CSNK1A1.

Assay [2] deals with T1, full-length human CSNK1A1. Nature of the assay: CSNK1A1 High ATP Assay (ADP-Glo, 1 mM ATP).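 Further: 30 min kinase reaction at 22 °C with 100 µM peptide substrate.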 The conditions noted are these: Table 3, read-out: CSNK1A1 high ATP assay IC50 [mol/l] (median). As for the experimental part: CSNK1A1-inhibitory activity of compounds of the present invention in presence of 1 mM adenosine-tri-phosphate (ATP) was quantified employing the CSNK1A1-high-ATP-assay as described in the following paragraphs. In essence, the enzyme activity is measured by quantification of the adenosine-di-phosphate (ADP), which is generated as a co-product of the enzyme reaction, via the “ADP-Glo™ Kinase Assay” kit from the company Promega. This detection system works as follows: In a first step the ATP not consumed in the kinase reaction is quantitatively converted to cAMP employing an adenylate cyclase (“ADP-Glo-reagent”), then the adenylate cyclase is stopped and the ADP generated in the kinase reaction converted to ATP which generates in a luciferase-based reaction a glow-luminescence signal (“Kinase Detection Reagent”).
as §1
For the assay 50 nl of a 100 fold concentrated solution of the test compound in DMSO was pipetted into a white low volume 384-well microtiter plate (Greiner Bio-One, Frickenhausen, Germany), 2 μL of a solution of CSNK1A1 in aqueous assay buffer [50 mM HEPES pH 7.5, 10% (v/v) glycerol, 10 mM MgCl2, 50 mM NaCl, 1 mM dithiothreitol, 0.01% (w/v) bovine serum albumin, 0.01% (v/v) Triton X-100] were added and the mixture was incubated for 15 min at 22° C. to allow pre-binding of the test compounds to the enzyme before the start of the kinase reaction. […] The concentration of CSNK1A1 was adjusted depending of the activity of the enzyme lot and was chosen appropriate to have the assay in the linear range, a typical concentration is about 0.4 ng/μL. The reaction was stopped by the addition of 2.5 μL of “ADP-Glo-reagent” (1:1.5 fold diluted with water) and the resulting mixture was incubated at 22° C. for 1 h to convert the ATP not consumed in the kinase reaction completely […]. Subsequently 2.5 μL of the “kinase detection reagent” (1.2 fold more concentrated than recommended by the producer) were added, the resulting mixture was incubated at 22° C. for 1 h and then the luminescence measured with a suitable measurement instrument (e.g. Viewlux™ from Perkin-Elmer). The amount of emitted light was taken as a measure for the amount of ADP generated and thereby for the activity of the CSNK1A1.
Background: ADP-Glo first removes unused ATP, then detects ADP through luciferase.

For assay [3], the target named is T2, full-length human CSNK1D (Homo sapiens, UniProt P48730).
T2 construct: N-terminal Glutathion-S-Transferase (GST) and full-length human CSNK1D; purchased Life Technologies PV3665; host or cells: baculovirus infected insect cells
T2 sequence (P48730 whole entry): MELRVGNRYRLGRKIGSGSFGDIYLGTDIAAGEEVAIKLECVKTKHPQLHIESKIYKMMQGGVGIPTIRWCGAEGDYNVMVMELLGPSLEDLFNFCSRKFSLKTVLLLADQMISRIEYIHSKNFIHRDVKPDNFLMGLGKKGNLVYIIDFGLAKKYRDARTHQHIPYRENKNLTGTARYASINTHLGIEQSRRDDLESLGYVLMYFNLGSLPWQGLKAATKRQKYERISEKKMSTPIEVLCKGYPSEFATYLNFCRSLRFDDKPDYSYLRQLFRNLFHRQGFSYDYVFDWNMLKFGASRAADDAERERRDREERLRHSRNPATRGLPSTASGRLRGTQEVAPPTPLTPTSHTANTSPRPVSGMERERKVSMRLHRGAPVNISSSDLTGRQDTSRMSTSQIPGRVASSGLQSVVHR
The assay is described as follows: CSNK1D Assay (ADP-Glo, 1 μM ATP). The conditions noted are these: Table 3, read-out: CSNK1D IC50 [mol/l] (median). As for the experimental part: CSNK1D-inhibitory activity of compounds of the present invention in presence of 1 μM adenosine-tri-phosphate (ATP) was quantified employing the CSNK1 D assay as described in the following paragraphs. In essence, the enzyme activity is measured by quantification of the adenosine-di-phosphate (ADP), which is generated as a co-product of the enzyme reaction, via the “ADP-Glo™ Kinase Assay” kit from the company Promega. This detection system works as follows: In a first step the ATP not consumed in the kinase reaction is quantitatively converted to cAMP employing an adenylate cyclase (“ADP-Glo-reagent”), then the adenylate cyclase is stopped and the ADP generated in the kinase reaction converted to ATP which generates in a luciferase-based reaction a glow-luminescence signal (“Kinase Detection Reagent”).
Recombinant fusion protein of N-terminal Glutathion-S-Transferase (GST) and full-length human CSNK1D, expressed by baculovirus infected insect cells and purified via Glutathion affinity chromatography, was purchased from Life Technologies (product no. PV3665) and used as enzyme. As substrate for the kinase reaction the biotinylated peptide Btn-Ahx-[…] (C-terminus in amide form) was used which can be purchased e.g. from the company Biosyntan (Berlin-Buch, Germany).
For the assay 50 nl of a 100 fold concentrated solution of the test compound in DMSO was pipetted into a white 1536-well microtiter plate (Greiner Bio-One, Frickenhausen, Germany), 2 μL of a solution of CSNK1D in aqueous assay buffer [50 mM HEPES pH 7.5, 10% (v/v) glycerol, 10 mM MgCl2, 50 mM NaCl, 1 mM dithiothreitol, 0.01% (w/v) bovine serum albumin, 0.01% (v/v) Triton X-100] were added and the mixture was incubated for 15 min at 22° C. to allow pre-binding of the test compounds to the enzyme before the start of the kinase reaction. […] The concentration of CSNK1D was adjusted depending of the activity of the enzyme lot and was chosen appropriate to have the assay in the linear range, a typical concentration is about 0.5 ng/μL. The reaction was stopped by the addition of 2.5 μL of “ADP-Glo-reagent” (1:1.5 fold diluted with water) and the resulting mixture was incubated at 22° C. for 1 h to convert the ATP not consumed in the kinase reaction completely […]. Subsequently 2.5 μL of the “kinase detection reagent” (1.2 fold more concentrated than recommended by the producer) were added, the resulting mixture was incubated at 22° C. for 1 h and then the luminescence measured with a suitable measurement instrument (e.g. Viewlux™ from Perkin-Elmer). The amount of emitted light was taken as a measure for the amount of ADP generated and thereby for the activity of the CSNK1D.

T1 sequence (P48729 whole entry): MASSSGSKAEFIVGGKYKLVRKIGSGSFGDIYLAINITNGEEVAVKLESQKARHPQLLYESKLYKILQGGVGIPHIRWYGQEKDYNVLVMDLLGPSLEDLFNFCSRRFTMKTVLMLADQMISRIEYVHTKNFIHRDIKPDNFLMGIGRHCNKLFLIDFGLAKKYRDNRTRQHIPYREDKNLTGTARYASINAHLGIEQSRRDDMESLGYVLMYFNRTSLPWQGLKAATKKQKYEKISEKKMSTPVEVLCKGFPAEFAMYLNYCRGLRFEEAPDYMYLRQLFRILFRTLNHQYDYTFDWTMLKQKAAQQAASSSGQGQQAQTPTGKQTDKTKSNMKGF

`O=C(Nc1cc(-c2[nH]c3ccc(F)nc3c2-c2ccc(F)cn2)ccn1)C(CC(F)F)c1ccc(F)cc1` (stereo not drawn) [Example 108, 4,4-difluoro-N-{4-[5-fluoro-3-(5-fluoropyridin-2-yl)-1H-pyrrolo[3,2-b]pyridin-2-yl]pyridin-2-yl}-2-(4-fluorophenyl)butanamide]: the IC50 in assay [1] worked out at 4.55 nM; in assay [2], 4.55 nM; in assay [3] it was 5.93 nM.
For `O=C(Nc1cc(-c2[nH]c3cc(Cl)cnc3c2-c2ccccn2)ccn1)C(CC(F)F)c1ccc(F)cc1` (stereo not drawn) [Example 87, N-{4-[6-chloro-3-(pyridin-2-yl)-1H-pyrrolo[3,2-b]pyridin-2-yl]pyridin-2-yl}-4,4-difluoro-2-(4-fluorophenyl)butanamide], the figures for the IC50 in assay [1], in assay [2] and in assay [3] were 6.08 nM, 6.08 nM and 10.8 nM, respectively.
Consider `Cc1cc(F)nc2c(-c3ccccn3)c(-c3ccnc(NC(=O)C(CC(F)F)c4ccc(F)cc4)c3)[nH]c12` (single isomer, unassigned; (+)) [Example 37, (+)-4,4-difluoro-N-{4-[5-fluoro-7-methyl-3-(pyridin-2-yl)-1H-pyrrolo[3,2-b]pyridin-2-yl]pyridin-2-yl}-2-(4-fluorophenyl)butanamide], for which the IC50 in assay [1] worked out at 3.97 nM; in assay [2], 3.97 nM; in assay [3] it was 8.32 nM.
Consider `O=C(Nc1cc(-c2[nH]c3nc(OC(F)F)cnc3c2-c2ccccn2)ccn1)C(CC(F)F)c1ccc(F)cc1` (single isomer, unassigned) [Example 107, N-{4-[3-(difluoromethoxy)-7-(pyridin-2-yl)-5H-pyrrolo[2,3-b]pyrazin-6-yl]pyridin-2-yl}-4,4-difluoro-2-(4-fluorophenyl)butanamide], for which the IC50 amounted to 64.6 nM in assay [1], 64.6 nM in assay [2] and 117 nM in assay [3].
With `COCCOc1cc(F)nc2c(-c3ccccn3)c(-c3ccnc(NC(=O)C(CC(F)F)c4ccc(F)cc4)c3)[nH]c12` (single isomer, unassigned) [Example 91, (2R or S)-4,4-difluoro-N-{4-[5-fluoro-7-(2-methoxyethoxy)-3-(pyridin-2-yl)-1H-pyrrolo[3,2-b]pyridin-2-yl]pyridin-2-yl}-2-(4-fluorophenyl)butanamide], the IC50 in assay [1] came to 9.57 nM; in assay [2] it was 9.57 nM; in assay [3], 23.4 nM.
For `O=C(Nc1cc(-c2[nH]c3nc(OC(F)F)cnc3c2-c2ccccn2)ccn1)C(CC(F)F)c1ccc(F)cc1` (single isomer, unassigned) [Example 106, N-{4-[3-(difluoromethoxy)-7-(pyridin-2-yl)-5H-pyrrolo[2,3-b]pyrazin-6-yl]pyridin-2-yl}-4,4-difluoro-2-(4-fluorophenyl)butanamide], the IC50 is 4.32 nM in assay [1], 4.32 nM in assay [2] and 6.1 nM in assay [3].
On to `COCCOc1cc(F)nc2c(-c3ccccn3)c(-c3ccnc(NC(=O)C(CC(F)F)c4ccc(F)cc4)c3)[nH]c12` (single isomer, unassigned) [Example 90, (2R or S)-4,4-difluoro-N-{4-[5-fluoro-7-(2-methoxyethoxy)-3-(pyridin-2-yl)-1H-pyrrolo[3,2-b]pyridin-2-yl]pyridin-2-yl}-2-(4-fluorophenyl)butanamide], for which the IC50 in assay [1] stood at 2.43 nM; in assay [2], 2.43 nM; in assay [3], 2.5 nM.
Regarding `O=C(Nc1cc(-c2[nH]c3c(OC4CC4)cc(F)nc3c2-c2ccccn2)ccn1)C(CC(F)F)c1ccc(F)cc1` (single isomer, unassigned) [Example 44, N-{4-[7-(cyclopropyloxy)-5-fluoro-3-(pyridin-2-yl)-1H-pyrrolo[3,2-b]pyridin-2-yl]pyridin-2-yl}-4,4-difluoro-2-(4-fluorophenyl)butanamide], the IC50 worked out at 6.02 nM in assay [1], 6.02 nM in assay [2] and 5.31 nM in assay [3].
